In patent US20210130417A1, “SYSTEMS AND METHODS FOR DESIGNING SYNTHETIC ANTIMICROBIAL PEPTIDES” (University of Notre Dame du Lac, priority 2017, published 2021):
Residues, ends and D or L forms follow the SMILES beside them.

Experiments:
HaCaT cells = assay: Ethidium homodimer cytotoxicity assay; type: cell-based, human
Description: Medium was aspirated, and cells were washed with PBS. […] Cells were incubated with peptide for 16 h. Medium was aspirated, and cells were washed with PBS. […] The fluorescence was read again. […] Washed cells were resuspended in 25 mL of PBS. […] Samples were read at 450 nm.

[1] = tested on: sheep red blood cells (RBCs); conditions: at the concentrations tested
Description: For hemolysis assays, 100 μL of sheep red blood cells (RBCs) were washed three times in cold PBS (Thermo Fischer). Washed cells were resuspended in 25 mL of PBS. Triton, PBS, or peptide in 10% DMSO/PBS were added to 180 μL of resuspended RBCs and incubated at 37° C. for 1 h. Samples were read at 450 nm. Data was expressed as percent hemolysis by relativizing to the Triton and PBS controls.

CC[C@H](C)[C@H](NC(=O)[C@H](CC(C)C)NC(=O)[C@H](CO)NC(=O)[C@@H](N)CC(C)C)C(=O)N[C@@H](C)C(=O)N[C@@H](C)C(=O)N[C@@H](C)C(=O)NCC(=O)N[C@@H](CCCCN)C(=O)N[C@@H](CCC(=O)O)C(=O)N[C@H](C(=O)N[C@H](C(=O)N[C@@H](CCCNC(=N)N)C(=O)N[C@@H](CCC(N)=O)C(=O)N[C@@H](Cc1ccc(O)cc1)C(=O)N[C@@H](CC(C)C)C(=O)N[C@@H](CCCCN)C(=O)N[C@@H](CC(N)=O)C(=O)N[C@@H](CCC(=O)O)C(=O)N[C@H](C(=O)N[C@@H](CCCCN)C(=O)N[C@@H](CCCCN)C(=O)N[C@@H](CCCCN)C(=O)NCC(=O)N[C@@H](CCCNC(=N)N)C(=O)N[C@@H](CCCCN)C(=O)N[C@@H](C)C(=O)N[C@H](C(=O)N[C@H](C(=O)N[C@@H](C)C(=O)N[C@@H](Cc1c[nH]c2ccccc12)C(=O)O)[C@@H](C)CC)C(C)C)[C@@H](C)CC)[C@@H](C)CC)[C@@H](C)O [syn-safencin] (H-LSLIAAAGKETIRQYLKNEIKKKGRKAVIAW-OH)
cytotoxicity, dose dependence (HaCaT cells; HaCaT cells treated for 16 h, up to 32 μM): slight dose-dependent increase in cytotoxicity
cytotoxicity at the MIC for X. axonopodis (HaCaT cells; HaCaT cells, 16 h, 8 μM peptide): no significant increase in cytotoxicity
percent of cytotoxicity (HaCaT cells; HaCaT cells, 16 h, 32 μM peptide (highest dose), vehicle control 17%): ~25%
hemolytic activity [1]: mild hemolytic activity
